Test results taken from patent publication US12173007B2, “Imidazopyridazine IL-17 inhibitor compounds” (Janssen Pharmaceutica NV, priority 2021, dated 2024).

Experiments:
[1] = biological target: T1, IL-17A(FLAG-Tagged): IL-17RA(His-Tagged) binding (Homo sapiens, UniProt Q16552, K93Q); assay: IL-17A(FLAG-tagged):IL-17RA(His-tagged) binding disruption Eu-HTRF assay, Protocol 1; conditions: FLAG-IL-17A 2.5 nM; average if tested more than once
Source text: IL-17A(FLAG-Tagged): IL-17RA(His-Tagged) Binding Disruption Eu-HTRF Assay
An antibody directed against the FLAG tag of IL-17A (SEQ ID NO: 1) is labeled with the HTRF donor chromophore (Europium-cryptate). IL-17A is present as a dimer that is “locked into” this quaternary structure due to the formation of loop-spanning […] disulfide bridges. The construct of IL-17RA used in the assay excludes the […] portion of the receptor and is fused to a C-terminal 10×His tag (SEQ ID NO:2). An antibody directed against the His tag of the IL-17RA chimera is labeled with the HTRF acceptor chromophore (“D2”). The fluorescence-resonance energy transfer (FRET) depends on the vicinity of the donor chromophore to the acceptor, and interruption of the binding between the IL-17A and IL-17RA causes the reduction/loss of FRET. Therefore, this assay allows to evaluate the compound effect on the binding IL-17A and IL-17RA by monitoring the fluorescence intensity of donor vs acceptor. The assay was run using either Protocol 1 or Protocol 2 as described below.
Protocol 1. 40 nl of 2-fold serial diluted compound solution for total 22 dilution points is added into each well of a 1536-well, white, low-volume, non-binding plate (Greiner #782904), then 2 μl of FLAG tagged IL-17A at 2×final concentration (2.5 nM) in solution of PBS+0.01% Triton-X100 is added to each well. The assay plate is briefly centrifuged then incubated for 1 h at rt. A mixed solution is prepared containing 2×5 nM 10HIS×IL-17RA, 2×2.5 nM Eu-anti-FLAG (CISBIO), 2×5 nM D2-anti-HIS (CISBIO) in PBS+0.01% Triton-X100+200 mM Potassium Fluoride (Sigma 60238) and 2 μl of mix is added to each well of the assay plate. The plate is briefly centrifuged then incubated for 2 h at rt. The HTRF intensities at the wavelength of donor (620 nm) and acceptor (665 nm) are measured using BMG Pherastar. The ratio between intensities at two wavelengths is calculated and plotted against the compound concentration and the data is fitted to a one-site competition model to yield IC50 of the compound.

[2] = test system: IL-17A-induced G-CSF production in human normal keratinocyte (NHK); assay: NHK assay: IL-17A-induced G-CSF production in normal human keratinocytes; type: cell-based; conditions: 24 h, IL-17A 5 ng/mL, G-CSF by HTRF, average if tested more than once
Method in brief: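 Stimulus rhIL-17A 5 ng/mL final, premixed 1 h rt with compound; adult NHK, 5% FBS, 0.2% DMSO. Viability by CellTiter-Glo vs DMSO.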

[3] = biological target: T1, IL-17A(FLAG-Tagged): IL-17RA(His-Tagged) binding; assay: IL-17A(FLAG-tagged):IL-17RA(His-tagged) binding disruption Eu-HTRF assay, Protocol 2; conditions: FLAG-IL-17A 1 nM; average if tested more than once
Method in brief: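 FLAG-tagged IL-17A (1 nM final) was preincubated with compound (2-fold serial dilutions, 22 points) for 1 h at rt in PBS + 0.01% Triton X-100. 10×His-IL-17RA, Eu-anti-FLAG and D2-anti-His in buffer containing KF were then added for 2 h at rt. IC50 came from the 665/615 nm HTRF ratio fitted to a one-site competition model.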

T1 sequence (Q16552 with tags, fused parts or gaps K93Q): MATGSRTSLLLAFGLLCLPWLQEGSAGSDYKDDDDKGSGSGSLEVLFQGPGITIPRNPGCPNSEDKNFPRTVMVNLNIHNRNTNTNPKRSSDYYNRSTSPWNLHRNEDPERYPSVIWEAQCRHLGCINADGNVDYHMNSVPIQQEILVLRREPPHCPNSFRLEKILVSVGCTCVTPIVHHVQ

Which IC50 [1] does the source give for CC1(F)CNC(=O)N(Cc2cnn3cc([C@@H](NC(=O)c4nonc4C4CC4)C4CCC(F)(F)CC4)nc3c2)C1 (single isomer, unassigned) [Example 1, 4-Cyclopropyl-N—((S)-(4,4-difluorocyclohexyl)(7-(((R*)-5-fluoro-5-methyl-2-oxotetrahydropyrimidin-1(2H)-yl)methyl)imidazo[1,2-b]pyridazin-2-yl)methyl)-1,2,5-oxadiazole-3-carboxamide] here?
The IC50 was less than 50 nM.

What about the IC50 ([2]; Homo sapiens, Keratinocyte) of the same molecule?
Its IC50 is greater than 100 nM.

For CC1(F)CNC(=O)N(Cc2cnn3cc([C@@H](NC(=O)c4nonc4C4CC4)C4CCC(F)(F)CC4)nc3c2)C1 (single isomer, unassigned) [Example 2, 4-Cyclopropyl-N—((S)-(4,4-difluorocyclohexyl)(7-(((S*)-5-fluoro-5-methyl-2-oxotetrahydropyrimidin-1(2H)-yl)methyl)imidazo[1,2-b]pyridazin-2-yl)methyl)-1,2,5-oxadiazole-3-carboxamide], which IC50 [1] is on record?
The IC50 was 50 to 100 nM.

And the IC50 [2]?
The IC50 was greater than 100 nM.

Which results are given for O=C(N[C@H](c1cn2ncc(CN3CC(C(F)(F)F)CNC3=O)cc2n1)C1CCC(F)(F)CC1)c1nonc1C1CC1 (single isomer, unassigned) [Example 5, 4-Cyclopropyl-N—((S)-(4,4-difluorocyclohexyl)(7-(((S*)-2-oxo-5-(trifluoromethyl)tetrahydropyrimidin-1(2H)-yl)methyl)imidazo[1,2-b]pyridazin-2-yl)methyl)-1,2,5-oxadiazole-3-carboxamide]?
IC50 [1]: < 50 nM; IC50 [2]: 50 to 100 nM

For O=C(N[C@H](c1cn2ncc(CN3CC(C(F)(F)F)CNC3=O)cc2n1)C1CCC(F)(F)CC1)c1nonc1C1CC1 (single isomer, unassigned) [Example 6, 4-Cyclopropyl-N—((S)-(4,4-difluorocyclohexyl)(7-(((R*)-2-oxo-5-(trifluoromethyl)tetrahydropyrimidin-1(2H)-yl)methyl)imidazo[1,2-b]pyridazin-2-yl)methyl)-1,2,5-oxadiazole-3-carboxamide], which IC50 [1] is on record?
Its IC50 is greater than 100 nM.

And the IC50 ([2]; Homo sapiens, Keratinocyte)?
Its IC50 is greater than 100 nM.

How did the IC50 [1] turn out when COCC(c1cnn2cc([C@H](COC(C)(C)C(F)(F)F)NC(=O)c3nonc3C)nc2c1)N1CC(F)(F)CNC1=O (single isomer, unassigned) [Example 15, N—((R)-1-(7-((S*)-1-(5,5-Difluoro-2-oxotetrahydropyrimidin-1(2H)-yl)-2-methoxyethyl)imidazo[1,2-b]pyridazin-2-yl)-2-((1,1,1-trifluoro-2-methylpropan-2-yl)oxy)ethyl)-4-methyl-1,2,5-oxadiazole-3-carboxamide] was run?
The IC50 was less than 50 nM.

What about the IC50 ([2]; Homo sapiens, Keratinocyte) of the same molecule?
The IC50 was less than 50 nM.

Which IC50 [1] does the source give for CC1CNC(=O)N(Cc2cnn3cc([C@@H](NC(=O)c4nonc4C4CC4)C4CCC(F)(F)CC4)nc3c2)C1 (single isomer, unassigned) [Example 28, 4-Cyclopropyl-N—((S)-(4,4-difluorocyclohexyl)(7-(((S*)-5-methyl-2-oxotetrahydropyrimidin-1(2H)-yl)methyl)imidazo[1,2-b]pyridazin-2-yl)methyl)-1,2,5-oxadiazole-3-carboxamide] here?
The IC50 was less than 50 nM.

What about the IC50 ([2]; Homo sapiens, Keratinocyte) of the same molecule?
The IC50 was greater than 100 nM.

How did the IC50 [1] turn out when CC1CNC(=O)N(Cc2cnn3cc([C@@H](NC(=O)c4nonc4C4CC4)C4CCC(F)(F)CC4)nc3c2)C1 (single isomer, unassigned) [Example 29, 4-Cyclopropyl-N—((S)-(4,4-difluorocyclohexyl)(7-(((R*)-5-methyl-2-oxotetrahydropyrimidin-1(2H)-yl)methyl)imidazo[1,2-b]pyridazin-2-yl)methyl)-1,2,5-oxadiazole-3-carboxamide] was run?
The IC50 was greater than 100 nM.

And the IC50 [2]?
The IC50 was greater than 100 nM.

What does the source list for CC(c1cnn2cc([C@@H](NC(=O)c3nonc3C3CC3)C3CCC(F)(F)CC3)nc2c1)N1CC(F)(F)CNC1=O (single isomer, unassigned) [Example 92, 4-Cyclopropyl-N—((S)-(7-((S*)-1-(5,5-difluoro-2-oxotetrahydropyrimidin-1(2H)-yl)ethyl)imidazo[1,2-b]pyridazin-2-yl)(4,4-difluorocyclohexyl)methyl)-1,2,5-oxadiazole-3-carboxamide]?
IC50 [1]: > 100 nM; IC50 ([2]; Homo sapiens, Keratinocyte): > 100 nM

How did the IC50 [1] turn out when Cc1nonc1C(=O)N[C@H](c1cn2ncc(C(C)N3CC(F)(F)CNC3=O)cc2n1)C1CCC(F)(F)CC1 (single isomer, unassigned) [Example 93, N—((S)-(7-((S*)-1-(5,5-Difluoro-2-oxotetrahydropyrimidin-1(2H)-yl)ethyl)imidazo[1,2-b]pyridazin-2-yl)(4,4-difluorocyclohexyl)methyl)-4-methyl-1,2,5-oxadiazole-3-carboxamide] was run?
Its IC50 is greater than 100 nM.

What about the IC50 ([2]; Homo sapiens, Keratinocyte) of the same molecule?
Its IC50 is greater than 100 nM.

What does the source list for CC1CCCN(Cc2cnn3cc([C@@H](NC(=O)c4ccnn4C(C)C)C4CCC(F)(F)CC4)nc3c2)C(=O)N1 (single isomer, unassigned) [Example 94, N—((S)-(4,4-Difluorocyclohexyl)(7-(((R*)-4-methyl-2-oxo-1,3-diazepan-1-yl)methyl)imidazo[1,2-b]pyridazin-2-yl)methyl)-1-isopropyl-1H-pyrazole-5-carboxamide]?
IC50 [1]: > 100 nM; IC50 ([2]; Homo sapiens, Keratinocyte): > 100 nM

CC1CCCN(Cc2cnn3cc([C@@H](NC(=O)c4ccnn4C(C)C)C4CCC(F)(F)CC4)nc3c2)C(=O)N1 (single isomer, unassigned) [Example 95, N—((S)-(4,4-Difluorocyclohexyl)(7-(((S*)-4-methyl-2-oxo-1,3-diazepan-1-yl)methyl)imidazo[1,2-b]pyridazin-2-yl)methyl)-1-isopropyl-1H-pyrazole-5-carboxamide] was tested. Which IC50 [1] did it give?
Its IC50 is greater than 100 nM.

What about the IC50 [2] of the same molecule?
Its IC50 is greater than 100 nM.

CC1CCCN(Cc2cnn3cc([C@@H](NC(=O)c4nonc4C4CC4)C4CCC(F)(F)CC4)nc3c2)C(=O)N1 (single isomer, unassigned) [Example 96, 4-Cyclopropyl-N—((S)-(4,4-difluorocyclohexyl)(7-(((R*)-4-methyl-2-oxo-1,3-diazepan-1-yl)methyl)imidazo[1,2-b]pyridazin-2-yl)methyl)-1,2,5-oxadiazole-3-carboxamide] was tested. Which IC50 [1] did it give?
Its IC50 is less than 50 nM.

And the IC50 ([2]; Homo sapiens, Keratinocyte)?
Its IC50 is greater than 100 nM.

What does the source list for CC1CCCN(Cc2cnn3cc([C@@H](NC(=O)c4nonc4C4CC4)C4CCC(F)(F)CC4)nc3c2)C(=O)N1 (single isomer, unassigned) [Example 97, 4-Cyclopropyl-N—((S)-(4,4-difluorocyclohexyl)(7-(((S*)-4-methyl-2-oxo-1,3-diazepan-1-yl)methyl)imidazo[1,2-b]pyridazin-2-yl)methyl)-1,2,5-oxadiazole-3-carboxamide]?
IC50 [1]: 50 to 100 nM; IC50 [2]: > 100 nM

COC[C@H](c1cnn2cc([C@@H](NC(=O)c3nonc3C(C)(F)F)C3CCC(F)(F)CC3)nc2c1)N1CC(F)(F)CNC1=O [Example 127, N—((S)-(7-((S)-1-(5,5-Difluoro-2-oxotetrahydropyrimidin-1(2H)-yl)-2-methoxyethyl)imidazo[1,2-b]pyridazin-2-yl)(4,4-difluorocyclohexyl)methyl)-4-(1,1-difluoroethyl)-1,2,5-oxadiazole-3-carboxamide] was tested. Which IC50 ([2]; Homo sapiens, Keratinocyte) did it give?
The IC50 was less than 50 nM.

And the IC50 [3]?
Its IC50 is less than 50 nM.

Which results are given for COC[C@H](c1cnn2cc([C@@H](NC(=O)c3nonc3CC(F)(F)F)C3CCC(F)(F)CC3)nc2c1)N1CC(F)(F)CNC1=O [Example 130, N—((S)-(7-((S)-1-(5,5-Difluoro-2-oxotetrahydropyrimidin-1(2H)-yl)-2-methoxyethyl)imidazo[1,2-b]pyridazin-2-yl)(4,4-difluorocyclohexyl)methyl)-4-(2,2,2-trifluoroethyl)-1,2,5-oxadiazole-3-carboxamide]?
IC50 ([2]; Homo sapiens, Keratinocyte): < 50 nM; IC50 [3]: < 50 nM

With “N—((S)-1-(7-((S)-2-Cyclopropoxy-1-(5,5-difluoro-2-oxotetrahydropyrimidin-1(2H)-yl-4,4,6,6-d4)ethyl)imidazo[1,2-b]pyridazin-2-yl)-5,5,5-trifluoro-4,4-dimethylpentyl)-1,2,5-oxadiazole-3-carboxamide trifluoroacetate [Example 131]” as the molecule, how does the IC50 [2] read?
Its IC50 is greater than 100 nM.

And the IC50 [3]?
The IC50 was less than 50 nM.
